Article PMC6222329 (Molecules : A Journal of Synthetic Chemistry and Natural …, 2018)

What was measured:
Type in all cases: biochemical
[1] = biological target: T1, AChE (Electrophorus electricus) (Electrophorus electricus, UniProt O42275); experiment: AChE inhibition, Ellman's method
T1 construct: purchased Sigma-Aldrich (Steinheim, Germany)
Experimental: (§1) The assay was performed in two steps.
(§2) All enzymes were obtained from Sigma-Aldrich (Steinheim, Germany). Ellman’s reagent and the substrates were obtained from Fluka (Buchs, Switzerland). The chemicals used to prepare the buffer solution were purchased from Merck (Darmstadt, Germany).
(§3) The enzyme inhibitory activities of the synthesized compounds were investigated by applying Ellman’s method. Enzyme solutions were dissolved in gelatin solution (1%; 2.5 units/mL). […] Then, the reaction was initiated by the addition of Ellman’s reagent 5,5′-Dithiobis(2-nitrobenzoic acid) (DTNB; 20 µL/well, 10 mM) and the substrate (10 µL/well, 75 mM). […] The enzyme solution was processed as a control. All readings were adjusted with blank-reading. All assays were performed in four independent wells. […] Absorbance differences between the two readings were taken, and percentage inhibition rates were calculated according to the following formula: % Inhibition=[(A(C)−A(B))−(A(I)−A(B))]/(A(C)−A(B))×100.
(§4) • Blank (B): the well in which the inhibitor compound and substrate were not added; • Control (C): the well where the inhibitor compound was not added; • A(B): the difference in absorbance reading for the blank; • A(C): the difference in absorbance reading for the control; • A(I): the difference in absorbance reading for the inhibitor compounds.

AChE (Human) = biological target: T2, AChE (Human) (Homo sapiens, UniProt P22303); experiment: AChE inhibition, Ellman's method
T2 construct: purchased Sigma-Aldrich (Steinheim, Germany)
T2 sequence (P22303 32-614): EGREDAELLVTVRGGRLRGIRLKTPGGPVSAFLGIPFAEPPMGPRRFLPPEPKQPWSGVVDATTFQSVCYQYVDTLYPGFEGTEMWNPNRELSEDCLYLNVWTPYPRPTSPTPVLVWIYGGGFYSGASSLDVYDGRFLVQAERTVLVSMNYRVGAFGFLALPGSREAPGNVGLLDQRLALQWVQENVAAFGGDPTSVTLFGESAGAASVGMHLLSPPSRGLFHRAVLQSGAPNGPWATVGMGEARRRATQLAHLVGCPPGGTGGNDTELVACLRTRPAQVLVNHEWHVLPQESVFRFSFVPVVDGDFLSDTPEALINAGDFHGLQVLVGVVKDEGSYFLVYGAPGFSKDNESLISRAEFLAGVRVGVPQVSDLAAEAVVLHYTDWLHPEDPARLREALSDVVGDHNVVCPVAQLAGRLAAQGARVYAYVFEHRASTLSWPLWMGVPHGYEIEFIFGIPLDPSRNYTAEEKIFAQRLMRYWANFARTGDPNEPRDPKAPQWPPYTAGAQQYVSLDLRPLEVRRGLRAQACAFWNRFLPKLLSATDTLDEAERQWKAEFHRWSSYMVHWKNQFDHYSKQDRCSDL
Experimental: as §1, §2, §3, §4

BChE (Equine) = biological target: T3, BChE (Equine) (Equus caballus, UniProt P81908); experiment: biochemical
T3 construct: purchased Sigma-Aldrich (Steinheim, Germany)
T3 sequence (P81908 whole entry): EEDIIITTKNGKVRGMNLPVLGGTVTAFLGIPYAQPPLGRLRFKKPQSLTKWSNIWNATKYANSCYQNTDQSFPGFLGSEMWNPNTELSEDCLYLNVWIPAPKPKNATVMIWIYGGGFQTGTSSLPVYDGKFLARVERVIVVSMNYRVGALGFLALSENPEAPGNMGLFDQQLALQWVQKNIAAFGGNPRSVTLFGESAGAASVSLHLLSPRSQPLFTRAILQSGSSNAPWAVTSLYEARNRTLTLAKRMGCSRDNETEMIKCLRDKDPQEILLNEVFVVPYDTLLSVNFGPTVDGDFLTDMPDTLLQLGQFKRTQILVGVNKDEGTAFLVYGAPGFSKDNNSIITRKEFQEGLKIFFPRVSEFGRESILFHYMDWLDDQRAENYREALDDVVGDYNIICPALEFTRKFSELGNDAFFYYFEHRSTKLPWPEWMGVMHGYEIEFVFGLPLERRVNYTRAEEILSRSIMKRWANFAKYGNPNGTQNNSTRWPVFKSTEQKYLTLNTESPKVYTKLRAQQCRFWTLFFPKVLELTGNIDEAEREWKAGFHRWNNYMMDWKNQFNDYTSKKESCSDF
Experimental: as §1, §2, §3, §4

BChE (Human) = biological target: T4, BChE (Human) (Homo sapiens, UniProt P06276); experiment: BChE inhibition, Ellman's method
T4 construct: purchased Sigma-Aldrich (Steinheim, Germany)
T4 sequence (P06276 29-602): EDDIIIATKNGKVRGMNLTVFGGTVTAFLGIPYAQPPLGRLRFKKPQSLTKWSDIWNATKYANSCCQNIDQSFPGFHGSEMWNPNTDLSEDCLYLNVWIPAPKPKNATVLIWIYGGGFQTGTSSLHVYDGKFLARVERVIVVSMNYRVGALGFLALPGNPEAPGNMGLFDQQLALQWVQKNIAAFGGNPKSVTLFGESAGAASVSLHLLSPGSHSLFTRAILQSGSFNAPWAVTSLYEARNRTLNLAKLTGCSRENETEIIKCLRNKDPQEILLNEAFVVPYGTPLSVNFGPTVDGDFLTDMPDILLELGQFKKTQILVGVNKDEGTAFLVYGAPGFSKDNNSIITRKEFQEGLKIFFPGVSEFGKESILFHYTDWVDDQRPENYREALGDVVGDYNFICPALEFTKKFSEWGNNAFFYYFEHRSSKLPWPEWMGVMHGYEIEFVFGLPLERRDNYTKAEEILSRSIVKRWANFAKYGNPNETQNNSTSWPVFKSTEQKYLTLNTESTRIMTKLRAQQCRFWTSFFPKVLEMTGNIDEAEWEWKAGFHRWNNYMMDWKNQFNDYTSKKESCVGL
Experimental: as §1, §2, §3, §4

[2] = read-out: AChE (Electrophorus electricus) inhibitory activity (%) ± SD
[3] = read-out: AChE (Human) inhibitory activity (%) ± SD
[4] = read-out: BChE (Human) inhibitory activity (%) ± SD

T1 sequence (O42275 24-633): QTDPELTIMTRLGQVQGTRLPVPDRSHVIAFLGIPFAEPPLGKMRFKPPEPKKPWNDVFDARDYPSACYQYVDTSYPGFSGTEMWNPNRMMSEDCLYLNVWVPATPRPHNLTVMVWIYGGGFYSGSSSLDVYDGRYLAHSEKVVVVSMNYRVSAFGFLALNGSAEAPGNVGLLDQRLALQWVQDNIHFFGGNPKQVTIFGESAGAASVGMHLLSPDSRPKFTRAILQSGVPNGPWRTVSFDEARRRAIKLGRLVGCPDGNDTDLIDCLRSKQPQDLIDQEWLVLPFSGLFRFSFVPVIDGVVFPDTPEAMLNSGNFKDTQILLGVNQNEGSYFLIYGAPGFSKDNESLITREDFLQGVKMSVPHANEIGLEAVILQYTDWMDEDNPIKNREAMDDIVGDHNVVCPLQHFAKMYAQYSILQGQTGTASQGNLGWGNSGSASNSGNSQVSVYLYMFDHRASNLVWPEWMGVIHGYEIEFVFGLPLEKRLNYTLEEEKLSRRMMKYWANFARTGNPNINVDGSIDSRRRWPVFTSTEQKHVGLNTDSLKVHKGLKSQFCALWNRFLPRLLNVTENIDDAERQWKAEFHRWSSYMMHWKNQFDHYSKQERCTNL

## Nc1c2ccccc2nc2ccccc12 [Aminoacridine, 9-aminoacridine, reference compound]
[1]; [2]
  inhibition at 0.001 µM: 16 ± 0.48%
  inhibition at 0.01 µM: 20.4 ± 0.55%
  inhibition at 0.1 µM: 31.6 ± 0.82%
  inhibition at 1 µM: 41.7 ± 0.97%
  inhibition at 10 µM: 59 ± 1.05%
  inhibition at 100 µM: 75.2 ± 1.15%
  inhibition at 1000 µM: 85.2 ± 1.08%
AChE (Human); [3]
  inhibition at 0.001 µM: 16.7 ± 0.37%
  inhibition at 0.01 µM: 21.6 ± 0.42%
  inhibition at 0.1 µM: 35.8 ± 0.67%
  inhibition at 1 µM: 44.3 ± 0.74%
  inhibition at 10 µM: 55.3 ± 0.82%
  inhibition at 100 µM: 78.2 ± 0.89%
  inhibition at 1000 µM: 87.2 ± 0.97%
BChE (Equine)
  IC50: 233 ± 9 nM
BChE (Equine); 10^-3 M, read-out: BChE (Equine) inhibitory activity (%) ± SD
  inhibition at 1000 µM: 91.2 ± 1.2%
BChE (Equine); 10^-4 M, read-out: BChE (Equine) inhibitory activity (%) ± SD
  inhibition at 100 µM: 87.3 ± 1.07%
BChE (Equine); 10^-5 M, read-out: BChE (Equine) inhibitory activity (%) ± SD
  inhibition at 10 µM: 71.5 ± 1.02%
BChE (Equine); 10^-6 M, read-out: BChE (Equine) inhibitory activity (%) ± SD
  inhibition at 1 µM: 56.3 ± 0.97%
BChE (Equine); 10^-7 M, read-out: BChE (Equine) inhibitory activity (%) ± SD
  inhibition at 0.1 µM: 42.8 ± 0.63%
BChE (Equine); 10^-8 M, read-out: BChE (Equine) inhibitory activity (%) ± SD
  inhibition at 0.01 µM: 30.1 ± 0.48%
BChE (Equine); 10^-9 M, read-out: BChE (Equine) inhibitory activity (%) ± SD
  inhibition at 0.001 µM: 24.9 ± 0.5%
BChE (Human)
  IC50: 221 ± 7 nM
BChE (Human); [4]
  inhibition at 0.001 µM: 22.7 ± 0.48%
  inhibition at 0.01 µM: 31.9 ± 0.62%
  inhibition at 0.1 µM: 46.8 ± 0.7%
  inhibition at 1 µM: 53.3 ± 0.99%
  inhibition at 10 µM: 74.3 ± 1.08%
  inhibition at 100 µM: 86.1 ± 1.22%
  inhibition at 1000 µM: 90.4 ± 1.04%

## CCN1CCN(C(=S)SCC(=O)Nc2c3ccccc3nc3ccccc23)CC1 [Compound 4c, 2-(9-Acridinylamino)-2-oxoethyl 4-ethylpiperazine-1-carbodithioate]
[1]; 10^-3 M
  AChE (Electrophorus electricus) inhibitory activity (%) ± SD: 50.73±2.21%
[1]; 10^-4 M
  AChE (Electrophorus electricus) inhibitory activity (%) ± SD: 5.11 ± 0.09%
AChE (Human); 10^-3 M
  AChE (Human) inhibitory activity (%) ± SD: 51.25±1.45%
AChE (Human); 10^-4 M
  AChE (Human) inhibitory activity (%) ± SD: 10.28 ± 0.22%
BChE (Equine); 10^-3 M
  BChE (Equine) inhibitory activity (%) ± SD: 45.18±0.94%
BChE (Equine); 10^-4 M
  BChE (Equine) inhibitory activity (%) ± SD: 22.70 ± 0.70%
BChE (Human); 10^-3 M
  BChE (Human) inhibitory activity (%) ± SD: 50.23±0.88%
BChE (Human); 10^-4 M
  BChE (Human) inhibitory activity (%) ± SD: 20.55 ± 0.61%

## O=C(CSC(=S)N1CCN(c2ccc([N+](=O)[O-])cc2)CC1)Nc1c2ccccc2nc2ccccc12 [Compound 4d, 2-(9-Acridinylamino)-2-oxoethyl 4-(4-nitrophenyl)piperazine-1-carbodithioate]
[1]; 10^-3 M
  AChE (Electrophorus electricus) inhibitory activity (%) ± SD: 55.62±1.14%
[1]; 10^-4 M
  AChE (Electrophorus electricus) inhibitory activity (%) ± SD: 31.64 ± 0.45%
AChE (Human); 10^-3 M
  AChE (Human) inhibitory activity (%) ± SD: 50.46±1.09%
AChE (Human); 10^-4 M
  AChE (Human) inhibitory activity (%) ± SD: 34.71 ± 0.77%
BChE (Equine); 10^-3 M
  BChE (Equine) inhibitory activity (%) ± SD: 77.75±1.79%
BChE (Equine); 10^-4 M
  BChE (Equine) inhibitory activity (%) ± SD: 40.19 ± 0.49%
BChE (Human); 10^-3 M
  BChE (Human) inhibitory activity (%) ± SD: 80.56±1.51%
BChE (Human); 10^-4 M
  BChE (Human) inhibitory activity (%) ± SD: 45.26 ± 0.60%

## O=C(CSC(=S)N1CCN(c2ccccc2)CC1)Nc1c2ccccc2nc2ccccc12 [Compound 4f, 2-(9-Acridinylamino)-2-oxoethyl 4-phenylpiperazine-1-carbodithioate]
[1]; 10^-3 M
  AChE (Electrophorus electricus) inhibitory activity (%) ± SD: 77.65±2.42%
[1]; 10^-4 M
  AChE (Electrophorus electricus) inhibitory activity (%) ± SD: 4.70 ± 0.27%
AChE (Human); 10^-3 M
  AChE (Human) inhibitory activity (%) ± SD: 74.28±1.04%
AChE (Human); 10^-4 M
  AChE (Human) inhibitory activity (%) ± SD: 8.71 ± 0.62%
BChE (Equine); 10^-3 M
  BChE (Equine) inhibitory activity (%) ± SD: 77.60±1.60%
BChE (Equine); 10^-4 M
  BChE (Equine) inhibitory activity (%) ± SD: 12.80 ± 0.87%
BChE (Human); 10^-3 M
  BChE (Human) inhibitory activity (%) ± SD: 75.23±1.25%
BChE (Human); 10^-4 M
  BChE (Human) inhibitory activity (%) ± SD: 15.67 ± 0.79%

## CN1CCN(C(=S)SCC(=O)Nc2c3ccccc3nc3ccccc23)CC1 [Compound 4g, 2-(9-Acridinylamino)-2-oxoethyl 4-methylpiperazine-1-carbodithioate]
[1]; 10^-3 M
  AChE (Electrophorus electricus) inhibitory activity (%) ± SD: 26.90±0.83%
[1]; 10^-4 M
  AChE (Electrophorus electricus) inhibitory activity (%) ± SD: 10.44 ± 0.66%
AChE (Human); 10^-3 M
  AChE (Human) inhibitory activity (%) ± SD: 30.85±0.65%
AChE (Human); 10^-4 M
  AChE (Human) inhibitory activity (%) ± SD: 11.30 ± 0.58%
BChE (Equine); 10^-3 M
  BChE (Equine) inhibitory activity (%) ± SD: 78.11±2.24%
BChE (Equine); 10^-4 M
  BChE (Equine) inhibitory activity (%) ± SD: 33.65 ± 0.89%
BChE (Human); 10^-3 M
  BChE (Human) inhibitory activity (%) ± SD: 80.29±2.40%
BChE (Human); 10^-4 M
  BChE (Human) inhibitory activity (%) ± SD: 35.97 ± 0.80%
